In article PMC10486429, “Investigations Using Albumin Binders to Modify the Tissue Distribution Profile of Radiopharmaceuticals Exemplified with Folate Radioconjugates” (Cancers, 2023):
Read-outs that look alike come from different tables or passages of the source.

Tests used:
[1] = Blood clearance of 177Lu-DOTA-ALBs in FVB mice; settings: for Time to Reach 50% IA (T50%IA): blood activity, value at 3 min set as 100%
Method: Immunocompetent female mice (FVB) at the age of 5 to 6 weeks were purchased from Charles River Laboratories (Sulzfeld, Germany) and acclimatized upon arrival for at least 7 days. FVB mice were intravenously injected with ^177Lu-DOTA-ALBs (25 MBq, 1 nmol/mouse, 100 µL PBS containing 0.05% bovine serum albumin (BSA) and 25 μg L-ascorbic acid, n = 3−6 mice per radioligand) followed by the first blood sampling of 3 × 1 μL from a different tail vein 3 min after injection (set as t0). Additional blood samples were taken at defined time points after injection. All collected blood samples from individual mice were measured at the same time using a γ-counter (PerkinElmer Wallac Wizard 1480, Waltham, MA, USA) to obtain decay-corrected values. The counts were set in relation to the initial counts at t0 (set as 100%) to prepare clearance curves by plotting the percentage of retained activity in the blood (% IA) against the time. The blood clearance curves were investigated until the counts of the blood samples were below the linear detection range (Supplementary Materials Section S6). An analysis was performed using GraphPad Prism software (version 8.0) by fitting a non-linear regression curve (exponential, two-phase) to the data points to calculate the serum half-lives. The areas under the curves (AUC0–7days) were calculated by integrating the blood excretion curves over 7 days and setting into relation with the AUC0–7days value obtained for [^177Lu]Lu-DOTA-ALB-1 (set as 1.0) to obtain relative AUC0–7days values. […]
S6. Blood Clearance of 177Lu-DOTA-ALBs
Purpose: The 177Lu-labeled DOTA-ALBs were investigated in vivo in order to assess their blood clearance profile.
Methods: Female, immunocompetent FVB mice were obtained from Charles River Laboratories (Sulzfeld, Germany), at the age of 5–6 weeks and acclimatized for at least 7 days before the start of the in vivo studies. Blood clearance of 177Lu-labeled DOTA-ALBs were determined in n=3–6 mice per radioligand. The radiolabeled DOTA-ALBs ( 25 MBq/nmol) were formulated in PBS pH 7.4 containing 0.05% bovine serum albumin (BSA) and L-ascorbic acid (25 µg per 25 MBq) to prevent radiolytic degradation. Mice were intravenously injected with the respective 177Lu-labeled DOTA-ALB (25 MBq, 1 nmol, 100 µL per mouse). The blood clearance was determined by taking blood samples (3 × 1 µL) from the tail vein using 1 µL-capillaries at 3 min after injection (set as t0) as well as at various timepoints over the following 48 h. In the case of [177Lu]Lu-DOTA-ALB-1 and [177Lu]Lu-DOTA-ALB-3, blood sampling was additionally performed at later time points up to 3 and 7 days, respectively. The collected blood samples were measured in a γ-coun-ter (PerkinElmer, Wallac Wizard 1480, Waltham, MA, USA).

folate receptor (FR) [2] = target: T1, folate receptor (FR) (Homo sapiens, UniProt P15328); experiment: FR-binding affinity (KD) of 177Lu-RedFols on IGROV-1 cells; settings: 1 h at 4 °C, read-out: KD Value (95% CI)
T1 construct: endogenous in cells; host or cells: IGROV-1 (human ovarian carcinoma cell line), intact cells on ice
Method: (100 µM) to block FRs on the cell surface. The IGROV-1 tumor cells were incubated for 1 h at 4 °C on a shaker, followed by removal of the supernatants and rinsing of the cells twice with PBS. After lysis of the cells with NaOH solution (1 M, 500 µL), the samples were counted for activity using a γ-counter (Wallac Wizard 1480, Perkin Elmer, Waltham, MA, USA). The cpm of the specific binding (determined by subtracting the cpm of the non-specific binding from the cpm of total binding), were plotted against the molar con-centration of the added folate radioconjugates. Non-linear regression analysis was per-formed using GraphPad Prism software (version 8) to obtain KD values from one curve of 3−5 independent experiments, each performed in triplicates.
Results: The results are reported in the main article. […]

[3] = design: method as in PMID 33063250; settings: n-octanol/PBS pH 7.4; cited from earlier work
[4] = tested on: KB tumor-bearing athymic nude mice; design: method as in earlier work; settings: cited from earlier work
folate receptor (FR) [5] = target: T1, folate receptor (FR); design: method as in PMID 34251183; settings: IGROV-1 cells; read-out: KD Value (95% CI); cited from earlier work
[6] = FVB mice, i.v., 25 MBq, 1 nmol, two-phase exponential fit of blood activity

T1 sequence (P15328 25-257): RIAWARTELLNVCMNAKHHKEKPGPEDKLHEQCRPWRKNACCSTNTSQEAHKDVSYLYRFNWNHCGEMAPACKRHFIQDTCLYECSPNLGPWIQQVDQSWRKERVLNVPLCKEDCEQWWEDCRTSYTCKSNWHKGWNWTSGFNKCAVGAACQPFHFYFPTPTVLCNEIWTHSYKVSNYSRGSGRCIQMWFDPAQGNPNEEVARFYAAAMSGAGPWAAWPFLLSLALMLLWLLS

O=C(O)CN1CCN(CC(=O)O)CCN(CC(=O)NCCC(=O)N[C@@H](CCCCNC(=O)c2ccc(CNC(=O)CCCCc3ccc(I)cc3)cc2)C(=O)O)CCN(CC(=O)O)CC1.[177Lu] [[^177Lu]Lu-DOTA-ALB-25]
Rel. Blood AUC0–7days ([1]; mouse, in vivo): 0.3 | % Phase a ([1]; mouse, in vivo, iv): 41% | % Phase b ([1]; mouse, in vivo, iv): 59% | Blood AUC0–7days ([1]; mouse, in vivo, iv): 425 % IA× h | Half-Life Phase a ([1]; mouse, in vivo, iv): 0.7 h | Half-Life Phase b ([1]; mouse, in vivo, iv): 4.5 h

CN1c2c(nc(N)[nH]c2=O)NC[C@H]1CNc1ccc(C(=O)N[C@@H](CCC(=O)N[C@@H](CCCCNC(=O)CN2CCN(CC(=O)O)CCN(CC(=O)O)CCN(CC(=O)O)CC2)C(=O)N[C@@H](CCCCNC(=O)CCCCc2ccc(I)cc2)C(=O)O)C(=O)O)cc1 [[^177Lu]Lu-6R-RedFol-24, metal not drawn]
Kd (folate receptor (FR) [2]): 4.7 nM

CN1c2c(nc(N)[nH]c2=O)NCC1CNc1ccc(C(=O)NC(CCC(=O)NC(CCCCNC(=O)CN2CCN(CC(=O)[O-])CCN(CC(=O)[O-])CCN(CC(=O)[O-])CC2)C(=O)NC(CCCCNC(=O)c2ccc(CNC(=O)CCCc3ccc(I)cc3)cc2)C(=O)O)C(=O)O)cc1.[177Lu+3] (stereo not drawn) [[^177Lu]Lu-6S-RedFol-3]
Kd (folate receptor (FR) [2]): 2.8 nM

O=C(O)CN1CCN(CC(=O)O)CCN(CC(=O)NCCC(=O)N[C@@H](CCCCNC(=O)c2ccc(CNC(=O)CCCc3ccc(I)cc3)cc2)C(=O)O)CCN(CC(=O)O)CC1.[177Lu] [[^177Lu]Lu-DOTA-ALB-3]
Retention of activity in the blood ([1]; FVB mice, 0 h p.i. (t0 set as 100%)): 100 % IA | Retention of activity in the blood ([1]; FVB mice, 1 h p.i.): 81 ± 9 % IA | Retention of activity in the blood ([1]; FVB mice, 2 h p.i.): 74 ± 16 % IA | Retention of activity in the blood ([1]; FVB mice, 4 h p.i.): 71 ± 11 % IA | Retention of activity in the blood ([1]; FVB mice, 8 h p.i.): 66 ± 10 % IA | Retention of activity in the blood ([1]; FVB mice, 24 h p.i.): 45 ± 7 % IA | Retention of activity in the blood ([1]; FVB mice, 48 h p.i.): 28 ± 5 % IA | Retention of activity in the blood ([1]; FVB mice, 72 h p.i.): 19 ± 2 % IA | Retention of activity in the blood ([1]; FVB mice, 120 h p.i.): 7 ± 2 % IA | Retention of activity in the blood ([1]; FVB mice, 144 h p.i.): 5 ± 1 % IA | Retention of activity in the blood ([1]; FVB mice, 168 h p.i.): 3 ± 1 % IA | Half-Life Phase a [1, 6]: 0.5 h | Half-Life Phase b [1, 6]: 34 h | Time to Reach 50% IA (T50%IA) ([1]; FVB mice, i.v.): ~ 24 h | Time to Reach 50% IA (T50%IA) ([1]; FVB mice, i.v., listed as 3): ~24 h | Blood AUC0–7days ([1]; FVB mice, i.v., decay-corrected, over 7 days): 3617 % IA× h | % Phase a ([1]; FVB mice, i.v., share of Phase a in blood excretion curve): 23% | % Phase b ([1]; FVB mice, i.v., share of Phase b in blood excretion curve): 77%

CN1c2c(nc(N)[nH]c2=O)NC[C@H]1CNc1ccc(C(=O)N[C@@H](CCC(=O)N[C@@H](CCCCNC(=O)CN2CCN(CC(=O)O)CCN(CC(=O)O)CCN(CC(=O)O)CC2)C(=O)N[C@@H](CCCCNC(=O)c2ccc(CNC(=O)CCCc3ccc(I)cc3)cc2)C(=O)O)C(=O)O)cc1 [[^177Lu]Lu-6R-RedFol-3, metal not drawn]
Kd (folate receptor (FR) [2]): 4.7 nM

CN1c2c(nc(N)[nH]c2=O)NCC1CNc1ccc(C(=O)NC(CCC(=O)NC(CCCCNC(=O)CN2CCN(CC(=O)[O-])CCN(CC(=O)[O-])CCN(CC(=O)[O-])CC2)C(=O)NC(CCCCNC(=O)c2ccc(CNC(=O)CCCCc3ccc(I)cc3)cc2)C(=O)O)C(=O)O)cc1.[177Lu+3] (stereo not drawn) [[^177Lu]Lu-6S-RedFol-25]
Kd (folate receptor (FR) [2]): 2.2 nM

CN1c2c(nc(N)[nH]c2=O)NC[C@H]1CNc1ccc(C(=O)N[C@@H](CCC(=O)N[C@@H](CCCCNC(=O)CN2CCN(CC(=O)O)CCN(CC(=O)O)CCN(CC(=O)O)CC2)C(=O)N[C@@H](CCCCNC(=O)CCCc2ccc(I)cc2)C(=O)O)C(=O)O)cc1 [[^177Lu]Lu-6R-RedFol-1, metal not drawn]
logD Values [3]: −3.9 ± 0.2 ^4 | Blood, accumulated activity ([4]; 1 h p.i.): 23 ± 3 % IA/g | Bone, accumulated activity ([4]; 1 h p.i.): 2.1 ± 0.3 % IA/g | Intestines, accumulated activity ([4]; 1 h p.i.): 2.9 ± 0.3 % IA/g | Kidneys, accumulated activity ([4]; 1 h p.i.): 8.4 ± 0.8 % IA/g | Liver, accumulated activity ([4]; 1 h p.i.): 3.3 ± 0.3 % IA/g | Lung, accumulated activity ([4]; 1 h p.i.): 10 ± 1 % IA/g | Muscle, accumulated activity ([4]; 1 h p.i.): 1.6 ± 0.2 % IA/g | Salivary glands, accumulated activity ([4]; 1 h p.i.): 5.0 ± 0.3 % IA/g | Spleen, accumulated activity ([4]; 1 h p.i.): 2.6 ± 0.2 % IA/g | Stomach, accumulated activity ([4]; 1 h p.i.): 1.9 ± 0.4 % IA/g | Tumor-to-blood ratio ([4]; 1 h p.i.): 0.46 ± 0.01 | Tumor-to-kidney ratio ([4]; 1 h p.i.): 1.3 ± 0.1 | Tumor-to-liver ratio ([4]; 1 h p.i.): 3.3 ± 0.2 | Blood, accumulated activity ([4]; 4 h p.i.): 17 ± 1 % IA/g | Bone, accumulated activity ([4]; 4 h p.i.): 1.9 ± 0.2 % IA/g | Intestines, accumulated activity ([4]; 4 h p.i.): 2.6 ± 0.7 % IA/g | KB tumor, accumulated activity ([4]; 4 h p.i.): 20 ± 2 % IA/g | Kidneys, accumulated activity ([4]; 4 h p.i.): 12 ± 1 % IA/g | Liver, accumulated activity ([4]; 4 h p.i.): 3.0 ± 0.2 % IA/g | Lung, accumulated activity ([4]; 4 h p.i.): 7.9 ± 1.4 % IA/g | Muscle, accumulated activity ([4]; 4 h p.i.): 1.4 ± 0.1 % IA/g | Salivary glands, accumulated activity ([4]; 4 h p.i.): 5.7 ± 0.5 % IA/g | Spleen, accumulated activity ([4]; 4 h p.i.): 2.2 ± 0.2 % IA/g | Stomach, accumulated activity ([4]; 4 h p.i.): 1.9 ± 0.3 % IA/g | Tumor-to-blood ratio ([4]; 4 h p.i.): 1.2 ± 0.1 | Tumor-to-kidney ratio ([4]; 4 h p.i.): 1.7 ± 0.1 | Tumor-to-liver ratio ([4]; 4 h p.i.): 6.9 ± 0.7 | Blood, accumulated activity ([4]; 24 h p.i.): 5.4 ± 0.9 % IA/g | Bone, accumulated activity ([4]; 24 h p.i.): 0.91 ± 0.22 % IA/g | Intestines, accumulated activity ([4]; 24 h p.i.): 0.80 ± 0.09 % IA/g | KB tumor, accumulated activity ([4]; 24 h p.i.): 47 ± 4 % IA/g | Kidneys, accumulated activity ([4]; 24 h p.i.): 24 ± 4 % IA/g | Liver, accumulated activity ([4]; 24 h p.i.): 1.3 ± 0.2 % IA/g | Lung, accumulated activity ([4]; 24 h p.i.): 3.2 ± 0.6 % IA/g | Muscle, accumulated activity ([4]; 24 h p.i.): 0.82 ± 0.22 % IA/g | Salivary glands, accumulated activity ([4]; 24 h p.i.): 5.2 ± 1.0 % IA/g | Spleen, accumulated activity ([4]; 24 h p.i.): 1.7 ± 0.1 % IA/g | Stomach, accumulated activity ([4]; 24 h p.i.): 0.80 ± 0.11 % IA/g | Tumor-to-blood ratio ([4]; 24 h p.i.): 8.8 ± 0.8 | Tumor-to-kidney ratio ([4]; 24 h p.i.): 2.0 ± 0.4 | Tumor-to-liver ratio ([4]; 24 h p.i.): 35 ± 4 | Kd (folate receptor (FR) [5]): 2.6 nM

O=C(O)CN1CCN(CC(=O)O)CCN(CC(=O)NCCC(=O)N[C@@H](CCCCNC(=O)CCCCc2ccc(I)cc2)C(=O)O)CCN(CC(=O)O)CC1.[177Lu] [[^177Lu]Lu-DOTA-ALB-24]
Rel. Blood AUC0–7days ([1]; mouse, in vivo): 0.08 | % Phase a ([1]; mouse, in vivo, iv): 99% | % Phase b ([1]; mouse, in vivo, iv): 1% | Blood AUC0–7days ([1]; mouse, in vivo, iv): 119 % IA× h | Half-Life Phase a ([1]; mouse, in vivo, iv): 0.8 h | Half-Life Phase b ([1]; mouse, in vivo, iv): 8.9 h

CN1c2c(nc(N)[nH]c2=O)NC[C@H]1CNc1ccc(C(=O)N[C@@H](CCC(=O)N[C@@H](CCCCNC(=O)CN2CCN(CC(=O)O)CCN(CC(=O)O)CCN(CC(=O)O)CC2)C(=O)N[C@@H](CCCCNC(=O)c2ccc(CNC(=O)CCCCc3ccc(I)cc3)cc2)C(=O)O)C(=O)O)cc1 [[^177Lu]Lu-6R-RedFol-25, metal not drawn]
Kd (folate receptor (FR) [2]): 3.6 nM
